Literature values, collected in patent US20070104896A1, “Optical film, polarizing plate and image display device” (FUJIFILM Corporation, priority 2005, published 2007).

Details: pKa of a conjugated acid of the organic base; values in an aqueous solution

| Compound | pKa |
| --- | --- |
| Cc1ccc2ccc3ccc(C)nc3c2n1 [b-5, 2,9-Dimethyl-1,10-phenanthroline] | 5.9 |
| Cc1ccnc2c1ccc1c(C)ccnc12 [b-6, 4,7-Dimethyl-1,10-phenanthroline] | 5.9 |
| Cc1ccccn1 [b-7, 2-Methylpyridine] | 6.1 |
| Cc1ccncc1 [b-8, 4-Methylpyridine] | 6.1 |
| CN(C)c1cccnc1 [b-9, 3-(N,N-Dimethylamino)pyridine] | 6.5 |
| Cc1cccc(C)n1 [b-10, 2,6-Dimethylpyridine] | 7.0 |
| Cc1ncc[nH]1 [b-12, 2-Methyl imidazole] | 7.6 |
| CCN1CCOCC1 [b-13, N-Ethylmorpholine] | 7.7 |
| CN1CCOCC1 [b-14, N-Methylmorpholine] | 7.8 |
| COCCNCCOC [b-15, Bis(2-methoxyethyl)amine] | 8.9 |
| CN(C)CCO [b-17, N,N-Dimethyl-2-aminoethanol] | 9.5 |
| CN(C)C [b-18, Trimethylamine] | 9.9 |
